Data taken from patent publication US20190367520A1, “NEW COMPOUND HAVING FGFR INHIBITORY ACTIVITY AND PREPARATION AND APPLICATION THEREOF” (SHANGHAI INSTITUTE OF MATERIA MEDICA, CHINESE ACADEMY OF …, priority 2016, published 2019).

Assays:
[1] = target: FGFR1 kinase domain recombinant protein (Homo sapiens, UniProt P11362); assay: FGFR1 enzyme activity at molecular level (ELISA, Poly(Glu,Tyr) 4:1 substrate)
Procedure: (§1) The plate was placed at 37° C. for 12-16 hours. The liquid in the well was discarded, the plate was washed, and the panel was washed three times with 200 μL/well of T-PBS (PBS containing 0.1% Tween-20) for 5 minutes each time.
(§2) 50 μL of ATP solution diluted with reaction buffer (50 mM HEPES pH 7.4, 50 mM MgCl2, 0.5 mM MnCl2, 0.2 mM Na3VO4, 1 mM DTT) was added to each well to a final concentration of 5 μM. The compound was diluted to a suitable concentration in DMSO, 1 μL/well or containing the corresponding concentration of DMSO (negative control well), and the FGFR1, FGFR4 kinase domain recombinant protein diluted in 49 μL of reaction buffer was added to initiate the reaction. Two control wells without ATP were required for each experiment. The reaction was carried out for 1 hour at 37° C. on a shaker (100 rpm). The plate was washed three times with T-PBS. Primary antibody, PY99 dilution was added at 100 μL/well and shaken at 37° C. for 0.5 hour. The plate was washed three times with T-PBS. Secondary antibody, horseradish peroxidase-labeled goat anti-mouse IgG dilution was added at 100 μL/well, and shaken at 37° C. for 0.5 hour. […] (Ultrasound was required for the dissolution of OPD, and the chromogenic solution needed to be prepared when used). 2 M H2SO4 was added at 50 μL/well to quench the reaction and a tunable wavelength microplate reader SPECTRA MAX 190 was used at a wavelength of 490 nm.
(§3) The inhibition rate of the sample was obtained by the following formula:
(§4) The IC50 value was obtained by four-parameter regression using the software attached to the microplate reader.

SNU16 cells = assay: SNU16 cell proliferation (CCK-8, 72 h); type: cell-based; details: Homo sapiens, SNU-16, read-out: SNU16 (IC50 class)
Procedure: The inhibitory effect of the compound on SNU16 cells proliferation was examined by CCK-8 Cell Counting Kit (Dojindo). The specific steps are as follows: SNU16 cells in logarithmic growth phase were inoculated into a 96-well culture plate at a suitable density, 90 μL per well, and cultured overnight, different concentrations of compounds were added for 72 hr, and the solvent control group was set (negative control). After the cells were treated by the compound for 72 h, the effect of the compound on cell proliferation was detected by CCK-8 cell counting kit (Dojindo). 10 μL of CCK-8 reagent was added to each well and placed in a 37° C. incubator for 2-4 hours. The full-wavelength microplate reader SpectraMax 190 was used at a measure wavelength of 450 nm.

[2] = target: FGFR4 kinase domain recombinant protein (Homo sapiens, UniProt P22455); assay: FGFR4 enzyme activity at molecular level (ELISA, Poly(Glu,Tyr) 4:1 substrate)
FGFR4 kinase domain recombinant protein, sequence (P22455 467-755 limits assumed): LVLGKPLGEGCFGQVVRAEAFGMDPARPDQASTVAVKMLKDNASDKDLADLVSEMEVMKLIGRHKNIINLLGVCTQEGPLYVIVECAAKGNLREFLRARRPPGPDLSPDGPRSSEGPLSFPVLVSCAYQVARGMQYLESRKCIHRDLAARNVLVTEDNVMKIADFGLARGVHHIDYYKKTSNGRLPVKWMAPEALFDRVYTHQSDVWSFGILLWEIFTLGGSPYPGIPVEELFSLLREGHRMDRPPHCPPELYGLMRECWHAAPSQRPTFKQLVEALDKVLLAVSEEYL
Procedure: as §1, §2, §3, §4

FGFR1 kinase domain recombinant protein, sequence (P11362 478-767 limits assumed): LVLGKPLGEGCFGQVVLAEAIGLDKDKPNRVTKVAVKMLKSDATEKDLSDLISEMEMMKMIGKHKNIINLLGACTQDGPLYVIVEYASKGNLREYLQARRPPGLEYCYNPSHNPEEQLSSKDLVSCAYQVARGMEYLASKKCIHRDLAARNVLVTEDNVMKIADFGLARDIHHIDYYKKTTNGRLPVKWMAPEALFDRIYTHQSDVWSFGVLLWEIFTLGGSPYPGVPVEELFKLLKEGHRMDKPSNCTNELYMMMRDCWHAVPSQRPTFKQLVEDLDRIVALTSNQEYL

Row | IC50 [1] | IC50 (SNU16 cells) | IC50 [2] | Structure (SMILES)
1 | < 10 nM | < 10 nM | < 10 nM | C=CC(=O)N1CCC(n2cc(-c3cc4cc(C)cc(OC)c4s3)c3c(N)ncnc32)C1 (centres unmarked) [NO. 1, 1-(3-(4-amino-5-(7-methoxy-5-methylbenzothiophen-2-yl)-7H-pyrrole[2,3-d]pyrimidine-7-yl)pyrrolidine-1-yl)prop-2-en-1-one]
2 | < 10 nM | < 10 nM | 10 to 100 nM | C=CC(=O)N1CCC(n2nc(-c3cc4cc(C)cc(OC)c4s3)c3c(N)ncnc32)C1 (centres unmarked) [NO. 2, 1-(3-(4-amino-3-(7-methoxy-5-methylbenzothiophene-2-yl)-1H-pyrazole[3,4-d]pyrimidine-1-yl)pyrrolidine-1-yl)prop-2-en-1-one]
3 | < 10 nM | > 100 nM | < 10 nM | C=CC(=O)N1CC(n2nc(-c3cc4cc(C)cc(OC)c4s3)c3c(N)ncnc32)C1 [NO. 26, 1-(3-(4-amino-3-(7-methoxy-5-methylbenzothiophene-2-yl)-1H-pyrazole[3,4-d]pyrimidine-1-yl)azetidine-1-yl)prop-2-en-1-one]
4 | < 10 nM | > 100 nM | 10 to 100 nM | C#CC(=O)N1CC(n2nc(-c3cc4cc(C)cc(OC)c4s3)c3c(N)ncnc32)C1 [NO. 27]
5 | < 10 nM | < 10 nM | 10 to 100 nM | C=C(F)C(=O)N1CC(n2cc(-c3cc4cc(C)cc(OC)c4s3)c3c(N)ncnc32)C1 [NO. 29]
6 | < 10 nM | < 10 nM | < 10 nM | C=C(CN1CCOCC1)C(=O)N1CC(n2cc(-c3cc4cc(C)cc(OC)c4s3)c3c(N)ncnc32)C1 [NO. 31, 1-(3-(4-amino-5-(7-methoxy-5-methylbenzothiophene-2-yl)-7H-pyrrole[2,3-d]pyrimidine-7-yl)azetidine-1-yl)-2-(morpholinomethylene)prop-2-en-1-one]
7 | 10 to 100 nM | > 100 nM | 10 to 100 nM | C=CC(=O)N1CCC(n2cc(-c3ccc4[nH]c(C)nc4c3)c3c(N)ncnc32)C1 (centres unmarked) [NO. 36, 1-(3-(4-amino-5-(2-methyl-1H-benzimidazol-5-yl)-7H-pyrrole[2,3-d]pyrimidine-7-yl)pyrrolidine-1-yl)prop-2-en-1-one]
8 | < 10 nM | < 10 nM | > 100 nM | COc1cc(C)cc2cc(-c3nn([C@H]4CCN(C(=O)/C=C/CN(C)C)C4)c4ncnc(N)c34)sc12 [NO. 38]
9 | < 10 nM | > 100 nM | < 10 nM | C#CC(=O)N1CC[C@H](n2nc(-c3cc4cc(C)cc(OC)c4s3)c3c(N)ncnc32)C1 [NO. 39, (S)-1-(3-(4-amino-3-(7-methoxy-5-methylbenzothiophene-2-yl)1H-pyrazolo[3,4-d]pyrimidine-1-yl)pyrrolidin-yl)prop-2-yn-1-one]
10 | < 10 nM | > 100 nM | < 10 nM | C=CS(=O)(=O)N1CC[C@H](n2nc(-c3cc4cc(C)cc(OC)c4s3)c3c(N)ncnc32)C1 [NO. 40]
11 | < 10 nM | – | < 10 nM | C=C(CN(C)C)C(=O)N1CC(n2cc(-c3cc4cc(C)cc(OC)c4s3)c3c(N)ncnc32)C1 [NO. 53, 1-(3-(4-amino-5-(7-methoxy-5-methylbenzothiophene-2-yl)-7H-pyrrole[2,3-d]pyrimidine-7-yl)azetidine-1-yl)-2-((dimethylamino)methylene)prop-2-en-1-one]
12 | < 10 nM | – | 10 to 100 nM | C=C(CN1CCOCC1)C(=O)N1CC[C@H](n2nc(-c3cc4cc(C)cc(OC)c4s3)c3c(N)ncnc32)C1 [NO. 54, (S) 1-(3-(4-amino-3-(7-methoxy-5-methylbenzothiophene-2-yl)-1H-pyrazole[3,4-d]pyrimidine-1-yl)pyrrolidine-1-yl)-2-(morpholinemethylene)prop-2-en-1-one]
13 | < 10 nM | – | < 10 nM | C=C(CN1CCOCC1)C(=O)N1CC(n2nc(-c3cc4cc(C)cc(OC)c4s3)c3c(N)ncnc32)C1 [NO. 55, 1-(3-(4-amino-3-(7-methoxy-5-methylbenzothiophene-2-yl)-1H-pyrazole[3,4-d]pyrimidin-yl)azetidine-1-yl)-2-(morpholinemethylene)prop-2-en-1-one]
14 | < 10 nM | – | < 10 nM | C=CC(=O)N1CC[C@H](n2nc(-c3cc4cc(C)cc(OC)c4s3)c3c(N)ncnc32)C1 [NO. 56, (S) 1-(3-(4-amino-3-(7-methoxy-5-methylbenzothiophene-2-yl)-1H-pyrazole[3,4-d]pyrimidine-1-yl)pyrrolidine-1-yl)prop-2-en-1-one]
15 | < 10 nM | – | < 10 nM | C=CC(=O)N1CCC(n2cc(-c3cc4cc(C(F)(F)F)cc(OC)c4s3)c3c(N)ncnc32)C1 (centres unmarked) [NO. 58, 1-(3-(4-amino-5-(7-methoxy-5-(trifluoromethyl)benzothiophene-2-yl)-7H-pyrrole[2,3-d]pyrimidine-7-yl)pyrrolidine-1-yl)prop-2-en-1-one]
16 | > 100 nM | – | > 100 nM | C=CC(=O)N1CCC(n2cc(-c3cc4cc(C)cc(OC)c4s3)c3c(N(C)C)ncnc32)C1 (centres unmarked) [NO. 63, 1-(3-(4-(dimethylamino)-5-(7-methoxy-5-methylbenzothiophene-2-yl)-7H-pyrrole[2,3-d]pyrimidine-7-yl)pyrrolidine-1-yl)prop-2-en-1-one]
17 | < 10 nM | – | 10 to 100 nM | COc1cc(C)cc2cc(-c3cn(C4CCN(C(=O)/C=C/CN5CCC(F)C5)C4)c4ncnc(N)c34)sc12 (centres unmarked) [NO. 69, (E)-1-(3-(4-amino-5-(7-methoxy-5-methylbenzothiophene-2-yl)-7H-pyrrole[2,3-d]pyrimidine-7-yl)pyrrolidine-1-yl)-4-(3-fluoropyrrolidin-1-yl)but-2-en-1-one]
18 | 10 to 100 nM | – | > 100 nM | COc1cc(C)cc2cc(-c3cn(CCN4CCOCC4)c4ncnc(N)c34)sc12 [NO. 76, 5-(7-methoxy-5-methylbenzothiophene-2-yl)-7-(2-morpholineethyl)-7H-pyrrole[2,3-d]p yrimidine-4-amine]
19 | < 10 nM | – | 10 to 100 nM | COc1cc(C)cc2cc(-c3cn(C4CCN(C(=O)/C=C/CN5CCC(O)CC5)C4)c4ncnc(N)c34)sc12 (centres unmarked) [NO. 77, (E)-1-(3-(4-amino-5-(7-methoxy-5-methylbenzothiophene-2-yl)-7H-pyrrole[2,3-d]pyrimidine-7-yl)pyrrolidine-1-yl)-4-(4-hydroxypiperidine-1-yl)but-2-en-1-one]
20 | < 10 nM | – | 10 to 100 nM | C=CC(=O)Nc1cccc(Cn2nc(-c3cc4cc(C)cc(OC)c4s3)c3c(N)ncnc32)c1 [NO. 78, N-(3-((4-amino-3-(7-methoxy-5-methylbenzothiophene-2-yl)-1H-pyrazole[3,4-d]pyrimidine-1-yl)methyl)phenyl)acrylamide]
21 | > 100 nM | – | > 100 nM | C=CC(=O)N1CCC(n2cc(-c3ccc4c(N)n[nH]c4c3)c3c(N)ncnc32)C1 (centres unmarked) [NO. 80, 1-(3-(4-amino-5-(3-amino-1H-indazol-6-yl)-7H-pyrrole[2,3-d]pyrimidine-7-yl)pyrrolidine-1-yl)prop-2-en-1-one]
22 | < 10 nM | – | 10 to 100 nM | COCCN(C)C/C=C/C(=O)N1CCC(n2cc(-c3cc4cc(C)cc(OC)c4s3)c3c(N)ncnc32)C1 (centres unmarked) [NO. 81, (E)-1-(3-(4-amino-5-(7-methoxy-5-methylbenzothiophene-2-yl)-7H-pyrrole[2,3-d]pyrimidine-7-yl)pyrrolidine-1-yl)-4-((2-methoxyethyl) (methyl)amino)but-2-en-1-one]
23 | > 100 nM | – | > 100 nM | C=CC(=O)N1CCC(n2cc(-c3ccncc3)c3c(N)ncnc32)C1 (centres unmarked) [NO. 82, 1-(3-(4-amino-5-(pyridine-4-yl)-7H-pyrrole[2,3-d]pyrimidine-7-yl)pyrrolidine-1-yl)prop-2-en-1-one]
24 | > 100 nM | – | > 100 nM | C=CC(=O)N1CCC(n2cc(-c3ccoc3)c3c(N)ncnc32)C1 (centres unmarked) [NO. 83, 1-(3-(4-amino-5-(furan-3-yl)-7H-pyrrole [2,3-d]pyrimidine-7-yl)pyrrolidine-1-yl)prop-2-en-1-one]
25 | < 10 nM | – | > 100 nM | COc1cc(C)cc2cc(-c3nn(C4CCN(C(=O)CCl)C4)c4ncnc(N)c34)sc12 (centres unmarked) [NO. 84, 1-(3-(4-amino-3-(7-methoxy-5-methylbenzothiophene-2-yl)-1H-pyrazole[3,4-d]pyrimidine-1-yl)pyrrolidine-1-yl)-2-chloroethane-1-one]
26 | > 100 nM | – | > 100 nM | C=CC(=O)N1CCC(n2cc(-c3cc4cc(C(=O)O)cc(OC)c4s3)c3c(N)ncnc32)C1 (centres unmarked) [NO. 85, 2-(7-(1-acryloylpyrrolidine-3-yl)-4-amino-7H-pyrrole[2,3-d]pyrimidine-5-yl)-7-methoxybenzothiophene-5-formic acid]

Row | Structure (SMILES) | IC50 [1] | IC50 (SNU16 cells) | IC50 [2]
27 | C=CS(=O)(=O)N1CC(n2cc(-c3cc4cc(C)cc(OC)c4s3)c3c(N)ncnc32)C1 [NO. 28, 5-(7-methoxy-5-methylbenzothiophene-2-yl)-7-(1-(vinylsulfonyl)azetidine-3-yl)-7H-pyrrole[2,3-d]pyrimidine-4-amine] | < 10 nM | > 100 nM | –
28 | C=CC(=O)N1CC(n2cc(-c3cc4c(OC)ccc(OC)c4s3)c3c(N)ncnc32)C1 [NO. 41, 1-(3-(4-amino-5-(4,7-dimethoxybenzothiophen-2-yl)-7H-pyrrole[2,3-d]pyrimidine-7-yl)azetidine-1-yl)prop-2-en-1-one] | – | 10 to 100 nM | –
